Measurements reported in patent US11628146B2, “Estrogen receptor ligand treatment for neurodegenerative diseases” (The Regents of the University of California, priority 2014, dated 2023).
“Also recorded” adds a separate entry of the source.

Experiments:
[1] = test system: EAE in NOD mice; assay: Rotarod testing in EAE, NOD mice; assay type: in vivo, mouse; design: key to Rotarod Score: n.s. = not significant; *p < 0.05; ***p = 0.0004; ****p < 0.0001; n.i. = not informative
Experimental: Rotarod Testing. Motor behavior was tested up to two times per week for each mouse using a rotarod apparatus (Med Associates Inc., St. Albans, Vt.). Briefly, animals were placed on a rotating horizontal cylinder for a maximum of 200 seconds. The amount of time the mouse remained walking on the cylinder, without falling, was recorded. Each mouse was tested on a speed of 3-30 rpm and given three trials for any given day. The three trials were averaged to report a single value for an individual mouse, and then averages were calculated for all animals within a given treatment group. The first two trial days prior to immunization (day 0), served as practice trials.

[2] = test system: EAE in NOD mice; assay: Standard EAE clinical score (0-5 scale), MOG-induced EAE, NOD mice; assay type: in vivo, mouse; design: key to Standard EAE Score: n.s. = not significant; *p < 0.05; ***p = 0.0004; ****p < 0.0001; n.i. = not informative; conditions: for Standard EAE Score: significance vs vehicle
Source text: Animals. C57BL/6 and NOD mice 8 weeks old were purchased from Jackson Laboratories (Bar Harbor, Me.). Animals were maintained under environmentally controlled conditions in a 12-hour light/dark cycle with access to food and water ad libitum. All procedures were done in accordance with the guidelines of the National Institutes of Health and the Chancellor's Animal Research Committee of the University of California, Los Angeles Office for the Protection of Research Subjects.
Reagents. AC-186 was dissolved in either Miglyol 812N liquid oil (Sasol North America) or sesame oil (Sigma Aldrich) as following concentration; 1.5 mg/mL for 3 mg/kg group, 5 mg/mL for 10 mg/kg group, and 15 mg/mL for 30 mg/kg group. Diarylpropionitrile (DPN, Tocris Biosciences) was dissolved in 10% molecular-grade ethanol and diluted with 90% of either Miglyol 812N liquid oil or sesame oil.
EAE and Treatments. Animals were injected subcutaneously with Myelin Oligodendrocyte Glycoprotein (MOG), amino acids 35-55 (200 μg/animal, American Peptides), emulsified in complete Freund's adjuvant (CFA) and supplemented with Mycobacterium tuberculosis H37ra (300 μg/animal, Difco Laboratories), over two sites drained by left inguinal and auxiliary lymph nodes in a total volume of 0.1 ml/mouse. One week later, a booster immunization was delivered over contra lateral lymph nodes. Pertussis toxin (500 ng/mouse) (List Biological Laboratories, Inc.) was injected intraperitoneally on days 0 and 2. Animals were monitored daily for EAE signs based on a standard EAE 0-5 scale scoring system: 0—healthy, 1—complete loss of tail tonicity, 2—loss of righting reflex, 3—partial paralysis, 4—complete paralysis of one or both hind limbs, and 5—moribund. Animals received 0.05 ml of either of 1.5, 5, 15 mg/mL AC-186, vehicle (sesame oil or Miglyol 812N liquid oil), or DPN (8 mg/kg/day) via subcutaneous injections every other day. Animals were treated with AC-186 or vehicle after EAE induction. Specifically, treatment was initiated at the first clear signs of clinical disease (EAE day 13-15), and continued to the endpoint of the experiment.

[3] = test system: female C57BL/6 mice with EAE; assay: In vivo longitudinal MRI of brain volumes in EAE; design: species or system mouse
Experimental: MRI Acquisition. Mice were anesthetized with isofluorane and their heads secured with bite and ear bars. Respiration rate was monitored and the mice were maintained at 37° C. using a circulating water pump. In vivo magnetic resonance imaging was performed using a 200 mm horizontal bore 7.0 T Bruker imaging spectrometer with a micro-imaging gradient insert with a maximum gradient strength of 100 G/cm and 30 mm birdcage RF coil (Bruker Instruments, Billerica, Mass.). An actively decoupled quadrature surface coil array was used for signal reception and a 72-mm birdcage coil was used for transmission. Images were acquired and reconstructed using ParaVision 5.1 software. Imaging parameters were as follows: rapid-acquisition with relaxation enhancement (RARE) sequence, matrix dimensions=256×128×64; field of view=3.84 cm×1.92 cm×0.96 cm; repetition time (TR)=3500 ms; apparent time to echo (apparent TE)=32 ms; echo train length=16; total scan time=37 mins. Spatial resolution was 150 μm^3 per voxel.
MRI Analysis. Images were skull-stripped using the Brain Surface Extractor (BSE) and residual non-brain signal was removed by a single operator manually editing the masks using BrainSuite 11a and bias-field inhomogeneities removed using the N3 correction. After inhomogeneity correction, a minimum deformation atlas (MDA) was produced. Images were spatially and intensity normalized to the MDA using a rigid-body transformation and an intensity rescaling cost function in Alignlinear (AIR). This process permits the comparison of images in a standard space correcting for both gross positional and intensity differences, yet preserving anatomically significant local changes. Following creation of this atlas, cerebral cortices and cerebella were manually labeled on the atlas. The labels were then warped onto the individual spatially normalized images to produce standardized estimates of gray matter volumes in individual subjects. All automated image processing was performed using the LONI Pipeline Processing Environment on an 8-processor core Mac Pro computer (Apple, Cupertino, Calif.).
Cerebral cortex and cerebellum labels were based on the Mouse Atlas Project 2003 mouse brain atlas. […] Importantly, this label contained the somatosensory regions (primary and secondary) and the motor cortex (primary and secondary). Additional anatomical information was obtained from the Franklin and Paxinos mouse brain atlas (Franklin and Paxinos, 2008).
Statistics. Global and regional brain volume changes in EAE mice and control animals were compared with repeated measures ANOVAs using SPSS 22 (IBM, Armonk, N.Y.). […] Regression analysis and Welch's t-tests were performed in Excel 2011 (Microsoft, Redmond, Wash.). All results are presented as mean±standard deviation.

[4] = NOD F, AC186 10 mg/kg, miglylol vehicle
[5] = NOD F, AC186 30 mg/kg, miglylol vehicle
[6] = NOD F, AC186 30 mg/kg, sesame vehicle
[7] = NOD M, AC186 10 mg/kg, miglylol vehicle
[8] = NOD M, AC186 30 mg/kg, miglylol vehicle
[9] = 30 mg/kg every other day in miglyol, d0, d30, d60, vs vehicle-treated EAE

Compound: Oc1ccc(C2(c3ccccc3F)CCC(F)(F)CC2)cc1 [AC-186]
- Rotarod Score [1, 4]: n.i.
- Rotarod Score [1, 5]: n.i.
- Rotarod Score [1, 6]: n.i.
- Rotarod Score [1, 7]: n.i.
- Rotarod Score [1, 8]: n.i.
- Rotarod times ([1]; NOD males, AC-186 in miglyol, vs vehicle): no significant improvement in performance in the rotarod experiment
- Standard EAE Score [2, 4]: **** (****p < 0.0001)
- Standard EAE Score [2, 5]: **** (****p < 0.0001)
- Standard EAE Score [2, 6]: n.s.
- Standard EAE Score [2, 7]: n.s.
- Standard EAE Score [2, 8]: **** (****p < 0.0001)
- EAE score ([2]; NOD females, 10 mg/kg in miglyol, vs vehicle, 10 mg/kg): improved EAE scores; also recorded: better EAE scores
- EAE score ([2]; NOD females, 30 mg/kg in miglyol, vs vehicle, 30 mg/kg): improved EAE scores; also recorded: better EAE scores
- EAE score ([2]; NOD females, high dose AC-186 in sesame oil carrier): did not ameliorate EAE scores; also recorded: no protection was observed
- EAE score ([2]; NOD males, 10 mg/kg in miglyol, vs vehicle): not
- EAE score ([2]; NOD males, 30 mg/kg in miglyol, vs vehicle, 30 mg/kg): improved EAE scores; also recorded: ameliorated
- Cerebellar atrophy (volume loss) [3, 9]: decreased the amount of volume loss; also recorded: less cerebellar atrophy
- Cerebral cortex atrophy [3, 9]: atrophy rates were decreased; also recorded: less atrophy in the cerebral cortex
- Whole brain atrophy (whole brain volume decrease over time) [3, 9]: significantly smaller; also recorded: less brain atrophy
- Volume of the whole cerebellum ([3]; AC-186 30 mg/kg treated EAE mice, d60, mean, SD 1.1 mm^3): 51.8 mm^3
- Volume of the cerebral cortex ([3]; AC-186 30 mg/kg treated EAE mice, d60, mean, SD 1.6 mm^3): 70.8 mm^3
- Volume of the whole brain ([3]; AC-186 30 mg/kg treated EAE mice, d60, mean, SD 7.0 mm^3): 483 mm^3
- Difference in cerebellum volume vs vehicle treated EAE mice ([3]; d60, vehicle 50.0 mm^3): 3.5%
- Difference in cerebral cortex volume vs vehicle treated EAE mice ([3]; d60, vehicle 68.9 mm^3): 5.0%
- Difference in whole brain volume vs vehicle treated EAE mice ([3]; d60, vehicle 478 mm^3): 2.7%
